# In US10696615B2, “Prenylated hydroxystilbenes” (The University of Sydney, priority 2011, dated 2020):
# Key:
# [1] = system: 786-0; assay: NCI in vitro cancer screen, Renal Cancer; format: cell-based, human; settings: 786-0
# [2] = system: HL-60 (TB); assay: NCI in vitro cancer screen, Leukemia; format: cell-based, human; settings: HL-60 (TB)
# [3] = system: NCI-H522; assay: NCI in vitro cancer screen, Non-Small Cell Lung Cancer; format: cell-based, human; settings: NCI-H522
# [4] = system: LOX IMVI; assay: NCI in vitro cancer screen, Melanoma; format: cell-based, human
# [5] = system: MOLT-4; assay: NCI in vitro cancer screen, Leukemia; format: cell-based, human; settings: MOLT-4
# [6] = system: ADR-RES (NCI/ADR-RES); assay: NCI in vitro cancer screen, Ovarian Cancer; format: cell-based, human
# [7] = system: COLO 205; assay: NCI in vitro cancer screen, Colon Cancer; format: cell-based, human; settings: COLO 205
# [8] = system: RPMI-8226; assay: NCI in vitro cancer screen, Leukemia; format: cell-based, human; settings: RPMI-8226
# [9] = system: MDA-MB-231 (MDA-MB-231/ATCC); assay: NCI in vitro cancer screen, Breast Cancer; format: cell-based, human; settings: MDA-MB-231
# [10] = system: CAKI-1; assay: NCI in vitro cancer screen, Renal Cancer; format: cell-based, human; settings: CAKI-1
# [11] = system: HCT-116; assay: NCI in vitro cancer screen, Colon Cancer; format: cell-based, human; settings: HCT-116
# [12] = system: HCC-2998; assay: NCI in vitro cancer screen, Colon Cancer; format: cell-based, human; settings: HCC-2998
# [13] = system: MALME-3M; assay: NCI in vitro cancer screen, Melanoma; format: cell-based, human
# [14] = system: NCI-H226; assay: NCI in vitro cancer screen, Non-Small Cell Lung Cancer; format: cell-based, human; settings: NCI-H226
# [15] = system: IGROV1; assay: NCI in vitro cancer screen, Ovarian Cancer; format: cell-based, human; settings: IGROV1
# [16] = system: SR; assay: NCI in vitro cancer screen, Leukemia; format: cell-based, human
# [17] = system: UACC-257; assay: NCI in vitro cancer screen, Melanoma; format: cell-based, human; settings: UACC-257
# [18] = system: SF-539; assay: NCI in vitro cancer screen, CNS Cancer; format: cell-based; settings: SF-539
# [19] = system: HOP-62; assay: NCI in vitro cancer screen, Non-Small Cell Lung Cancer; format: cell-based, human; settings: HOP-62
# [20] = system: SN12C; assay: NCI in vitro cancer screen, Renal Cancer; format: cell-based, human
# [21] = system: M14; assay: NCI in vitro cancer screen, Melanoma; format: cell-based, human; settings: M14
# [22] = system: OVCAR-4; assay: NCI in vitro cancer screen, Ovarian Cancer; format: cell-based, human; settings: OVCAR-4
# [23] = system: EKVX; assay: NCI in vitro cancer screen, Non-Small Cell Lung Cancer; format: cell-based, human
# [24] = system: HOP-92; assay: as above; format: cell-based, human; settings: HOP-92
# [25] = system: HCT-15; assay: NCI in vitro cancer screen, Colon Cancer; format: cell-based, human; settings: HCT-15
# [26] = system: HS 578T; assay: NCI in vitro cancer screen, Breast Cancer; format: cell-based, human
# [27] = system: SF-268; assay: NCI in vitro cancer screen, CNS Cancer; format: cell-based, human; settings: SF-268
# [28] = system: A498; assay: NCI in vitro cancer screen, Renal Cancer; format: cell-based, human; settings: A498
# [29] = Homo sapiens, read-out: LC50 (the source's name)
smiles,measurement,setting,value
"COc1cc(/C=C/c2cc(O)cc(OCC=C(C)C)c2)ccc1O [USYDS2, (E)-3-(3-methyl-2-butenyloxy)-4′,5-dihydroxy-3′-methoxystilbene]",TGI,[1],15.9 µM
same,GI50,[1]; Homo sapiens,3.55 µM
same,LC50 (50% net cell kill),[1]; Homo sapiens,98.8 µM
same,TGI,[2],9.77 µM
same,GI50,[2]; Homo sapiens,1.34 µM
same,CC50,[2]; [29],> 100 µM
same,GI50,[3]; Homo sapiens,1.14 µM
same,CC50,[3]; [29],14.7 µM
same,TGI,[3],3.57 µM
same,TGI,[4],19.4 µM
same,GI50,[4]; Homo sapiens,1.56 µM
same,CC50,[4]; [29],> 100 µM
same,GI50,[5]; Homo sapiens,4.16 µM
same,CC50,[5]; [29],> 100 µM
same,TGI,[5],28.3 µM
same,TGI,[6]; ADR-RES,4.95 µM
same,GI50,"[6]; Homo sapiens, NCI/ADR-RES",0.4 µM
same,CC50,"[6]; Homo sapiens, NCI/ADR-RES, read-out: LC50 (the source's name)",> 100 µM
same,TGI,[7],31.7 µM
same,GI50,[7]; Homo sapiens,17.3 µM
same,CC50,[7]; [29],57.9 µM
same,GI50,[8]; Homo sapiens,4.32 µM
same,CC50,[8]; [29],> 100 µM
same,TGI,[8],52.8 µM
same,GI50,[9]; Homo sapiens,0.25 µM
same,CC50,[9]; [29],15.7 µM
same,TGI,[9],2.10 µM
same,TGI,[10],>100 µM
same,GI50,[10]; Homo sapiens,6.13 µM
same,CC50,[10]; [29],> 100 µM
same,TGI,[11],11.9 µM
same,GI50,[11]; Homo sapiens,2.09 µM
same,LC50 (concentration killing 50% of cells),[11]; Homo sapiens,40 µM
same,TGI,[12],17.3 µM
same,GI50,[12]; Homo sapiens,4.61 µM
same,CC50,[12]; [29],46.4 µM
same,GI50,"[13]; Homo sapiens, Malme-3M",1.88 µM
same,CC50,"[13]; Homo sapiens, Malme-3M, read-out: LC50 (the source's name)",94.9 µM
same,TGI,[13]; MALME-3M,26.2 µM
same,GI50,[14]; Homo sapiens,5.43 µM
same,LC50 (50% lethal concentration),[14]; Homo sapiens,46.4 µM
same,TGI,[14],19.1 µM
same,GI50,"[15]; Homo sapiens, IGROV-1",5.84 µM
same,CC50,"[15]; Homo sapiens, IGROV-1, read-out: LC50 (the source's name)",> 100 µM
same,TGI,[15],46.7 µM
same,TGI,[16],>100 µM
same,GI50,[16]; Homo sapiens,0.54 µM
same,CC50,[16]; [29],> 100 µM
same,GI50,[17]; Homo sapiens,7.89 µM
same,CC50,[17]; [29],46 µM
same,TGI,[17],20.6 µM
same,GI50,[18]; Homo sapiens,1.92 µM
same,CC50,[18]; [29],50.2 µM
same,TGI,[18],13.8 µM
same,TGI,[19],18.5 µM
same,GI50,[19]; Homo sapiens,4.44 µM
same,CC50,[19]; [29],43.4 µM
same,TGI,[20],18.8 µM
same,GI50,[20]; Homo sapiens,4.02 µM
same,CC50,[20]; [29],60.2 µM
same,GI50,[21]; Homo sapiens,0.53 µM
same,CC50,[21]; [29],49.4 µM
same,TGI,[21],15.4 µM
same,GI50,[22]; Homo sapiens,5.34 µM
same,CC50,[22]; [29],> 100 µM
same,TGI,[22],28.0 µM
same,TGI,[23],25.2 µM
same,GI50,[23]; Homo sapiens,9.04 µM
same,CC50,[23]; [29],66.4 µM
same,TGI,[24],21.1 µM
same,GI50,[24]; Homo sapiens,3.98 µM
same,CC50,[24]; [29],60.1 µM
same,TGI,[25],17.8 µM
same,GI50,[25]; Homo sapiens,0.76 µM
same,CC50,[25]; [29],97.3 µM
same,TGI,[26],10.3 µM
same,GI50,[26]; Homo sapiens,1.28 µM
same,CC50,[26]; [29],> 100 µM
same,GI50,[27]; Homo sapiens,4.5 µM
same,CC50,[27]; [29],51.6 µM
same,TGI,[27],19.2 µM
same,TGI,[28],23.8 µM
same,GI50,[28]; Homo sapiens,10.3 µM
same,CC50,[28]; [29],55.2 µM
